Measured values as given in patent US9856290B2, “Glycopeptide compositions and uses thereof” (SUSSEX RESEARCH LABORATORIES INC., priority 2013, dated 2018).
Marks after values point to notes of the source that are not given here. Primed or numbered codes have the meaning given here. The star is where a group is joined. Ac3‑α‑GalNAc = per-acetylated α-N-acetylgalactosamine (O-glycoside), CC(=O)N[C@@H]1[C@@H](OC(C)=O)[C@@H](OC(C)=O)[C@@H](COC(C)=O)O[C@@H]1*; Ac3‑α‑GalNAc″ = peracetylated alpha-N-acetylgalactosamine, CC(=O)N[C@@H]1[C@@H](OC(C)=O)[C@@H](OC(C)=O)[C@@H](COC(C)=O)O[C@@H]1*; Ac3‑β‑GlcNAc = per-acetylated β-N-acetylglucosamine, CC(=O)N[C@@H]1[C@@H](OC(C)=O)[C@H](OC(C)=O)[C@@H](COC(C)=O)O[C@H]1*; Ac4‑β‑Glc = per-acetylated β-glucose (tetraacetyl), CC(=O)OC[C@H]1O[C@@H](*)[C@H](OC(C)=O)[C@@H](OC(C)=O)[C@@H]1OC(C)=O; Ac4‑α‑Man = per-acetylated α-mannose, CC(=O)OC[C@H]1O[C@H](*)[C@@H](OC(C)=O)[C@@H](OC(C)=O)[C@@H]1OC(C)=O; βGlc = OC[C@H]1O[C@@H](*)[C@H](O)[C@@H](O)[C@@H]1O; Palmitoyl = CCCCCCCCCCCCCCCC(=O)*

Tests used:
[1] = system: Human Dermal Fibroblasts (KMST-6); test: ECM ELISA assay: elastin secretion by human dermal fibroblasts; assay type: cell-based; details: 5 μM; for Elastin Secretion at 48 hours: KMST-6, 48 hours; for Elastin Secretion at 48 hours / Elastin Secretion at 72 hours: % compared to control set at 100%, normalized to total protein
Experimental: (§1) KMST-6 cells (Japan Health Sciences Foundation, JCRB0433) were seeded at 7,000 cells/ml in 12-well tissue culture treated plates (Falcon, 353043) in complete media. The complete media consisted of the following: MEM/EBSS (Hyclone, SH30024.01), 10% Heat-Inactivated FBS (Gibco, 10082-147), 1% L-Glutamine (Hyclone, SH30031.01), 1% Nucleosides (800 mg/L Adenosine, 850 mg/L Guanidine, 730 mg/L Cytidine, 730 mg/L Uridine and 240 mg/L Thymidine), 1% Penicillin/Streptomycin (HyClone, SV30010), 1% Sodium Pyruvate (HyClone, SH30239.01), 1% Non-Essential Amino Acids (Hyclone, SH30238.01) and 0.04% Gentamicin (Gibco, 15710-064). Cells were grown for 2 days prior to treatments. The media was aspirated and cells were washed with 1×PBS (Fisher, SH30256.01) and treated with 5 μM (1 mL/well) glycopeptides, reference (Pal-KTTKS, CPC Scientific, 822197), and control (DMSO, Fisher, BP231-100) in serum-free media supplemented with 50 μg/mL Sodium Ascorbate (Sigma, A4034) and 80 μg/mL β-Aminopropionate Fumarate (Sigma, A3134). The treated cells were incubated at 37° C. and 5% CO2 for 48 and 72 hours. At each timepoint, media from each treatment was collected and centrifuged at 1500 RPM for 15 minutes at 4° C. The supernatant was collected and stored at −80° C. for extracellular matrix protein quantification. The following kits were used for quantification of ECM proteins: Fibronectin (Takara, MK115) and Elastin (Uscn Life Science Inc., E91337Hu). The cells were harvest and lysed with 250 μL Lysis Buffer (20 mM Tris-HCl (Sigma, T1503), 137 mM NaCl (Sigma, S9888), 2 mM EDTA (Fisher, BP118), 1% IGEPAL (Sigma, 18896), 10% Glycerol (Sigma, G5516), 100 μM PMSF (Fisher, 36978) and 10 μg/mL Leupeptin (Sigma-Aldrich, L2884). They were placed on a container of ice on a plate shaker (Lab-Line Instruments, 3595) for 30 minutes. The lysate was centrifuged at 10,000 g for 5 minutes at 4° C. The supernatant was collected and used for protein quantification (BioRad, 500-0112).
(§2) To determine effects on extracellular matrix protein secretion, 5 μM of individual glycopeptides were incubated with Human Dermal Fibroblasts (KMST-6). The control sample cells were treated with DMSO (Fisher, BP231-100). As described previously, supernatant was collected from treated cells (at two time-points, 48 and 72 hours of treatment) and stored at −80° C. for subsequent extracellular matrix protein quantification using ELISA kits (Fibronectin (Takara, MK115), Elastin (Uscn Life Science Inc., E91337Hu). For the determination of total cellular protein, treated cells were harvested and lysed. The lysate was centrifuged, the supernatant was collected and then used for protein quantification (BioRad, 500-0112). ELISA plates were read on the plate reader (Molecular Devices) at absorbance of 450 nm and SoftMax Pro software was used to compute the μg/ml values of protein of interest derived from the generated 4-parameter fit standard curve. Each μg/ml of protein secreted was normalized to total protein per well. The data was analysed by averaging out normalized values from at least three independent experiments and presenting them as a % compared to control treatment set at 100% (Table 2-5). Statistical significance was performed using One-way ANOVA (p<0.05) where “*” represents statistical significance when compared to control and “#” represents statistical significance when compared to reference. […]

[2] = system: Human Dermal Fibroblasts (KMST-6); test: ECM ELISA assay: fibronectin secretion by human dermal fibroblasts; assay type: cell-based; details: 5 μM; for Fibronectin secretion at 48 hours: KMST-6, 48 hours; for Fibronectin secretion at 48 hours / Fibronectin Secretion at 72 hours: % compared to control set at 100%, normalized to total protein
Experimental: as §1, §2

| Substance | Elastin Secretion at 48 hours [1] | Elastin Secretion at 72 hours ([1]; KMST-6, 72 hours) | Fibronectin secretion at 48 hours [2] | Fibronectin Secretion at 72 hours ([2]; KMST-6, 72 hours) [%] | biological activity in elastin secretion compared to control ([1]; 72 hours) | ELASTIN (ECM Protein Summary Table) ([1]; KMST-6, 72 hours, control 100%) [%] | biological activity in fibronectin secretion compared to control ([2]; 72 hours) | FIBRONECTIN (ECM Protein Summary Table) ([2]; KMST-6, 72 hours, control 100%) [%] |
| --- | --- | --- | --- | --- | --- | --- | --- | --- |
| Pal-KS(β-Glc)TKS-OH (Palmitoyl-KS(βGlc)TKS-OH; SMILES CCCCCCCCCCCCCCCC(=O)N[C@@H](CCCCN)C(=O)N[C@@H](CO[C@@H]1O[C@H](CO)[C@@H](O)[C@H](O)[C@H]1O)C(=O)N[C@H](C(=O)N[C@@H](CCCCN)C(=O)N[C@@H](CO)C(=O)O)[C@@H](C)O; listed as Homo sapiens) [GP003-4] | 136.8% | 120.8% | 165.8* % | 132.5 | – | – | – | – |
| Pal-KT(Ac3-α-GalNAc)-T(Ac3-α-GalNAc)KS-OH (Palmitoyl-KT(Ac3‑α‑GalNAc″)T(Ac3‑α‑GalNAc″)KS-OH; SMILES CCCCCCCCCCCCCCCC(=O)N[C@@H](CCCCN)C(=O)N[C@H](C(=O)N[C@H](C(=O)N[C@@H](CCCCN)C(=O)N[C@@H](CO)C(=O)O)[C@@H](C)O[C@H]1O[C@H](COC(C)=O)[C@H](OC(C)=O)[C@H](OC(C)=O)[C@H]1NC(C)=O)[C@@H](C)O[C@H]1O[C@H](COC(C)=O)[C@H](OC(C)=O)[C@H](OC(C)=O)[C@H]1NC(C)=O; listed as Homo sapiens) [GP001-13] | 123.8% | 131.3% | 114.0% | 94.50 | – | – | – | – |
| Pal-KT(Ac3-α-GalNAc)TKS-OH (Palmitoyl-KT(Ac3‑α‑GalNAc)TKS-OH; SMILES CCCCCCCCCCCCCCCC(=O)N[C@@H](CCCCN)C(=O)N[C@H](C(=O)N[C@H](C(=O)N[C@@H](CCCCN)C(=O)N[C@@H](CO)C(=O)O)[C@@H](C)O)[C@@H](C)O[C@H]1O[C@H](COC(C)=O)[C@H](OC(C)=O)[C@H](OC(C)=O)[C@H]1NC(C)=O; listed as Homo sapiens) [GP001-3] | 123.3% | 132.5% | 163.8* % | 117.4 | – | – | – | – |
| Pal-KT(Ac3-β-GlcNAc)TKS-OH (Palmitoyl-KT(Ac3‑β‑GlcNAc)TKS-OH; SMILES CCCCCCCCCCCCCCCC(=O)N[C@@H](CCCCN)C(=O)N[C@H](C(=O)N[C@H](C(=O)N[C@@H](CCCCN)C(=O)N[C@@H](CO)C(=O)O)[C@@H](C)O)[C@@H](C)O[C@@H]1O[C@H](COC(C)=O)[C@@H](OC(C)=O)[C@H](OC(C)=O)[C@H]1NC(C)=O; listed as Homo sapiens) [GP001-5] | 81.67% | 90.00% | 125.0% | 105.0 | – | – | – | – |
| Pal-KT(Ac4-α-Man)TKS-OH (Palmitoyl-KT(Ac4‑α‑Man)TKS-OH; SMILES CCCCCCCCCCCCCCCC(=O)N[C@@H](CCCCN)C(=O)N[C@H](C(=O)N[C@H](C(=O)N[C@@H](CCCCN)C(=O)N[C@@H](CO)C(=O)O)[C@@H](C)O)[C@@H](C)O[C@H]1O[C@H](COC(C)=O)[C@@H](OC(C)=O)[C@H](OC(C)=O)[C@@H]1OC(C)=O; listed as Homo sapiens) [GP003-1] | 464.1* % | 413.6* % | 193.7* % | 125.3 | – | – | – | – |
| Pal-KT(Ac4-β-Glc)TKS-OH (Palmitoyl-KT(Ac4‑β‑Glc)TKS-OH; SMILES CCCCCCCCCCCCCCCC(=O)N[C@@H](CCCCN)C(=O)N[C@H](C(=O)N[C@H](C(=O)N[C@@H](CCCCN)C(=O)N[C@@H](CO)C(=O)O)[C@@H](C)O)[C@@H](C)O[C@@H]1O[C@H](COC(C)=O)[C@@H](OC(C)=O)[C@H](OC(C)=O)[C@H]1OC(C)=O; listed as Homo sapiens) [GP001-1] | 205.3% | 188.0% | 159.3* % | 121.5 | greater biological activity | 188 | greater biological activity | 122 |
